Active and inactive are the calls of the source. No cut-off for these calls is given here.
How the values were obtained:
MV4-11 [1] = experiment: Induction of apoptosis in human MV4-11 cells assessed as early apoptotic cells at 0.5 microM measured after 18 hrs by Annexin V/Propidium iodide stain based Flow cytometry assay (reference value: 1.7%); assay type: functional
[2] = biological target: Class 1 histone deacetylase (Homo sapiens) (UniProt Q13547+O15379+Q92769+Q9BY41); experiment: Inhibition of HDAC class 1 in human HeLa cells assessed as acetylated H3 histone at 0.1 uM measured after 6 hrs by Immunofluorescent assay
Sequence of Class 1 histone deacetylase (Homo sapiens) (O15379 whole entry, looked up): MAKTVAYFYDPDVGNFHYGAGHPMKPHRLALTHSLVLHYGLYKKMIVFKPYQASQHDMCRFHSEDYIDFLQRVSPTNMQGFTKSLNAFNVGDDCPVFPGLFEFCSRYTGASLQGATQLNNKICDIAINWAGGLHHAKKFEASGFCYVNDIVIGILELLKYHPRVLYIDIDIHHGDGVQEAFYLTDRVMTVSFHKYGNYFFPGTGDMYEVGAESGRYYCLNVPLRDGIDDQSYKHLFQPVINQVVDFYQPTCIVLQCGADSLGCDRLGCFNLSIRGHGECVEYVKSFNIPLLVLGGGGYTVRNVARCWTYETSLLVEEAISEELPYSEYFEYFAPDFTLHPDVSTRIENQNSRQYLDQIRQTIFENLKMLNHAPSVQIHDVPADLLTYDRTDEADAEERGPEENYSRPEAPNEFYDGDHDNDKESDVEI
Sequence of Class 1 histone deacetylase (Homo sapiens) (Q13547 whole entry, looked up): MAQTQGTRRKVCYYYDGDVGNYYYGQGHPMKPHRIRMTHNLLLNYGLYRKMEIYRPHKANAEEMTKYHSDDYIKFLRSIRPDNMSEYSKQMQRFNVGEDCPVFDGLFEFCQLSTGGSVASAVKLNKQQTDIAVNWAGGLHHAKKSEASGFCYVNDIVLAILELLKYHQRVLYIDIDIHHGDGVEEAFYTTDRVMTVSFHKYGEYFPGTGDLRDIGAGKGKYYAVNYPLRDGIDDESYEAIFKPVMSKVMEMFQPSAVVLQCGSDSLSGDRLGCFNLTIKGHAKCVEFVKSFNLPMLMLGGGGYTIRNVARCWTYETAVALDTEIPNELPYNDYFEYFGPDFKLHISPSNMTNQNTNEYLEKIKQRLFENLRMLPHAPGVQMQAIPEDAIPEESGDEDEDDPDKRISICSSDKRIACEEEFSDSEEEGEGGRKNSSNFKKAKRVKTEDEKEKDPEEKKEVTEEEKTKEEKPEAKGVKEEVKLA
Sequence of Class 1 histone deacetylase (Homo sapiens) (Q92769 whole entry, looked up): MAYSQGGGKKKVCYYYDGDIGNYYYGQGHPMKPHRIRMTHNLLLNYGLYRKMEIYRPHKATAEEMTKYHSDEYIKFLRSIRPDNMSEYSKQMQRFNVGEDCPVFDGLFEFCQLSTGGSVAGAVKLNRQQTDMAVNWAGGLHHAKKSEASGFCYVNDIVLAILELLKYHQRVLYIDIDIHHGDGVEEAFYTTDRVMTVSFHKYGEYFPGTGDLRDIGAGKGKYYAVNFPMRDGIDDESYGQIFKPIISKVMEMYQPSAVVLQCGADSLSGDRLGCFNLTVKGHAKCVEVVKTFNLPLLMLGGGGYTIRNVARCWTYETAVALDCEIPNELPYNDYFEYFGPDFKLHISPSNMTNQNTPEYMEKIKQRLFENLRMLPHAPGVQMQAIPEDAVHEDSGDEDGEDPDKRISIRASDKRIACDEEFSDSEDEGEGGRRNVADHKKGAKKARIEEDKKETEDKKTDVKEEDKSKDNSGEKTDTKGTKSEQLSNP
Sequence of Class 1 histone deacetylase (Homo sapiens) (Q9BY41 whole entry, looked up): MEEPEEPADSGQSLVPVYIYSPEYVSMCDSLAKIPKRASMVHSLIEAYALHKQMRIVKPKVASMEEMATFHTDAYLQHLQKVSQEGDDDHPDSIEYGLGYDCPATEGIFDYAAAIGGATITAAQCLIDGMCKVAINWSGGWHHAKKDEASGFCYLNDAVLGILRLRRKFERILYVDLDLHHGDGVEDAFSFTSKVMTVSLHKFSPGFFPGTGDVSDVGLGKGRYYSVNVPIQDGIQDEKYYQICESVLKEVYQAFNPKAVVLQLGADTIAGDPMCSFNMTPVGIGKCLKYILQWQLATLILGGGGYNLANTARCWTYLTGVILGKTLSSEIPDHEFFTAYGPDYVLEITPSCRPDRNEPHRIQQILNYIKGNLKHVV

[3] = Half life in CD1 mouse at 20 mg/kg, ip measured after 24 hrs by LC/MS/MS method; assay type: ADME, organism-based; conditions: in vivo
MV4-11 [4] = experiment: Induction of apoptosis in human MV4-11 cells assessed as viable cells at 1 microM measured after 18 hrs by Annexin V/Propidium iodide stain based Flow cytometry assay (reference value: 53.27%); assay type: functional; conditions: read-out: Activity
[5] = AUC (last) in CD1 mouse at 20 mg/kg, ip measured after 24 hrs by LC/MS/MS method; assay type: ADME, organism-based; set-up: route intraperitoneal, dose 20 mg/kg, time 24 hrs; conditions: in vivo
[6] = Toxicity in CD-1 mouse assessed as changes in body weight at 20 mg/kg, po measured after 5 days; assay type: organism-based; conditions: in vivo, 120 h, time 5 day
MV4-11 [7] = experiment: Induction of apoptosis in human MV4-11 cells assessed as late apoptotic cells at 2 microM measured after 18 hrs by Annexin V/Propidium iodide stain based Flow cytometry assay (reference value: 4.91%); assay type: functional
[8] = biological target: T1, Protein deacetylase HDAC6 (Homo sapiens) (UniProt Q9UBN7); experiment: Inhibition of HDAC6 in human HeLa cells assessed as increase in acetylated alpha tubulin at 0.1 uM measured after 6 hrs by Immunofluorescent assay
T1 sequence (whole entry): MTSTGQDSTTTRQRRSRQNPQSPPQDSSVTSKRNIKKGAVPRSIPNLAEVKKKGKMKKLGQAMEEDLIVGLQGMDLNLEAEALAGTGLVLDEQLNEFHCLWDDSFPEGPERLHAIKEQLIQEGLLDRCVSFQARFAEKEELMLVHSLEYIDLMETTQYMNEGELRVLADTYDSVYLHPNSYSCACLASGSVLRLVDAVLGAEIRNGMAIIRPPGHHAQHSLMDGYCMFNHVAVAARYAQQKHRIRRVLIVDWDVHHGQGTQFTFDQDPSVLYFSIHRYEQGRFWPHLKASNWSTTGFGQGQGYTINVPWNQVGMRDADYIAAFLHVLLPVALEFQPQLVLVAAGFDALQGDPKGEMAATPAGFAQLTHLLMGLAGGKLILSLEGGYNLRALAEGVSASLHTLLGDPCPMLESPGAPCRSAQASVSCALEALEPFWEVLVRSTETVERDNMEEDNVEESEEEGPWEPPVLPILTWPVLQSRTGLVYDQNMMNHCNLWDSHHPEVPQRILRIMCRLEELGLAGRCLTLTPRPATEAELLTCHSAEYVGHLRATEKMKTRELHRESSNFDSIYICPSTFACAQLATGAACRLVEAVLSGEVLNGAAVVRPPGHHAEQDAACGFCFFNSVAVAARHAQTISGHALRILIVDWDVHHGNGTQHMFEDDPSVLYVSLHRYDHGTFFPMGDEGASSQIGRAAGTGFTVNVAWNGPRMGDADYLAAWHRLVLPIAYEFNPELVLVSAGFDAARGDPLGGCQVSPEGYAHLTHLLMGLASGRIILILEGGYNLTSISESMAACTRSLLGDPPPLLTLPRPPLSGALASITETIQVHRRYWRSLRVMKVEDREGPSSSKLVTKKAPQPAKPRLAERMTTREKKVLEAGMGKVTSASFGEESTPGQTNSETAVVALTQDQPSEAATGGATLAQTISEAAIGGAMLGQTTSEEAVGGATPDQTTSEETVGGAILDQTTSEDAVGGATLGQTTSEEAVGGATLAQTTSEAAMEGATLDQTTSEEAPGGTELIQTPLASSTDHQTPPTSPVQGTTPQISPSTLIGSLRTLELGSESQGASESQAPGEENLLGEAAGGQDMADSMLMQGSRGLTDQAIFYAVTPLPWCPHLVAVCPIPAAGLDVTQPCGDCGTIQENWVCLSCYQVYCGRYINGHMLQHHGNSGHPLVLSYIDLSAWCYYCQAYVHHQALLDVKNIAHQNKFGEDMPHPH

[9] = Toxicity in CD-1 mouse assessed as visible signs of toxicity at 20 mg/kg, po measured after 5 days; assay type: organism-based; conditions: in vivo, 120 h, time 5 day
Fibroblast = experiment: Cytotoxicity against human fibroblasts measured after 72 hrs by spectrophotometer method; assay type: cell-based
RPMI-8226 = experiment: Cytotoxicity against human RPMI-8226 cells measured after 72 hrs by spectrophotometer method; assay type: functional, cell-based; conditions: RPMI-8226, 72 h
HUVEC = experiment: Cytotoxicity against human HUVEC cells measured after 72 hrs by spectrophotometer method; assay type: cell-based

In the case of `O=C(NO)c1ccc(CNC(=O)c2c(F)c(F)c(F)c(F)c2F)cc1`, the Activity (MV4-11 [1]) is reported as 2.87%, the inhibition [2] is reported as “inactive” and the half-life [3] is reported as 15 min. For the same compound, the viability at 1 µM (MV4-11 [4]) was 35.6%, the AUC(0-t) at 24 h [5] was 190 ng·h/mL and the Activity [6] was “Non-Toxic”. The Activity (MV4-11 [7]) was 15.93%, the inhibition [8] was “Active” and the Activity [9] was “Non-Toxic”. It also gave an IC50 (Fibroblast) of 11.5 µM, an IC50 (RPMI-8226) of 4.94 µM and an IC50 (HUVEC) of 10.3 µM.
